From US8394809B2, “Phenoxy-substituted pyrimidines as opioid receptor modulators” (priority 2009, dated 2013)
Like-named read-outs stand apart in the source and are kept apart here.

Key:
delta opioid receptor [1] = biological target: T1, delta opioid receptor (Rattus norvegicus, UniProt P33533); experiment: Rat brain delta opioid receptor binding assay; details: rat forebrain membranes
T1 construct: the forebrains were homogenized in Tris buffer in a Teflon®-glass homogenizer; from tissue; host or cells: forebrain of male Wistar rats, particulate membrane preparation
T1 sequence (P33533 whole entry): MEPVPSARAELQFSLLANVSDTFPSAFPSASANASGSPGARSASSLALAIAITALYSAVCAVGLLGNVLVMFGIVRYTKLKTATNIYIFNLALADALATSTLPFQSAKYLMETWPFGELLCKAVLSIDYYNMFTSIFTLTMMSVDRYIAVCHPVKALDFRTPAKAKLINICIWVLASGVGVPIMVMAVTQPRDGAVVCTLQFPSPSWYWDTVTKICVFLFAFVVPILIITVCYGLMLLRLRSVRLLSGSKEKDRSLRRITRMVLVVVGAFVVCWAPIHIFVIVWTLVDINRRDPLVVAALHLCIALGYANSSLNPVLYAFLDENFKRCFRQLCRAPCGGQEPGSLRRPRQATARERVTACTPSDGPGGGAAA
Experimental: (§1) Procedure: Male, Wistar rats (150-250 g, VAF, Charles River, Kingston, N.Y.) were killed by CO2, and their brains were removed and placed immediately in ice cold Tris HCl buffer (50 mM, pH 7.4). The forebrains were separated from the remainder of the brain by a coronal transection, beginning dorsally at the colliculi and passing ventrally through the midbrain-pontine junction. After dissection, the forebrains were homogenized in Tris buffer in a Teflon®-glass homogenizer. The homogenate was diluted to a concentration of 1 g of forebrain tissue per 80 mL Tris and centrifuged at 39,000×g for 10 min. The pellet was resuspended in the same volume of Tris buffer containing 5 mM MgCl2 with several brief pulses from a Polytron homogenizer. This particulate preparation was used for the delta opioid binding assays. Following incubation with the delta selective peptide ligand ˜4 nM [^3H]DPDPE or 0.25 nM [^3H]naltrindole at 25° C. for 2.5 h in a 96-well plate with total volume of […], the plate contents were filtered through Wallac filtermat B sheets on a Tomtec 96-well harvester. […] To each sample area 2×50 μL of Betaplate Scint scintillation fluid (LKB) was added and the radioactivity was quantified on a LKB (Wallac) 1205 BetaPlate liquid scintillation counter.
(§2) Analysis: The data from the scintillation counter was used to calculate either the % inhibition compared to control binding (when only a single concentration of test compound was evaluated) or a Ki value (when a range of concentrations was tested). Percent inhibition was calculated as: [(total dpm−test compound dpm)/(total dpm-nonspecific dpm)]*100. Kd and Ki values were calculated using GraphPad PRISM data analysis program.

mu opioid receptor = biological target: T2, mu opioid receptor (Rattus norvegicus, UniProt P33535); experiment: Rat brain mu opioid receptor binding assay; details: rat forebrain membranes, ~0.8 nM [3H]DAMGO; read-out: μ-binding Ki
T2 construct: the forebrains were homogenized in Tris buffer in a Teflon®-glass homogenizer; from tissue; host or cells: forebrain of male Wistar rats, particulate membrane preparation
T2 sequence (P33535 whole entry): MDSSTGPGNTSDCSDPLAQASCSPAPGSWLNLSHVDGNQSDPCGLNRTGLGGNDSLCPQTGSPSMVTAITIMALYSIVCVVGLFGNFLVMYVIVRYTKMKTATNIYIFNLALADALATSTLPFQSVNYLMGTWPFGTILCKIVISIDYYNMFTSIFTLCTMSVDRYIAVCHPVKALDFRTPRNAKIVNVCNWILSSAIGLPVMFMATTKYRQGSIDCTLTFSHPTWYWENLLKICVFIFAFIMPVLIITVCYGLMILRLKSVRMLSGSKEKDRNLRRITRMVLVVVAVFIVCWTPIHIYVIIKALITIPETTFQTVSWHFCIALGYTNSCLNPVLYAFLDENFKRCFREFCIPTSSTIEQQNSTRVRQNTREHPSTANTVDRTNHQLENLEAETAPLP
Experimental: as §1, with “mu” for “delta”, “ligand, ˜0.8” for “ligand ˜4”, “[^3H]DAMGO,” for “[^3H]DPDPE or 0.25 nM [^3H]naltrindole”, “total assay” for “total”, “2×40” for “2×50”, “quantifed” for “quantified”
as §2

delta opioid receptor [2] = biological target: T3, delta opioid receptor (Mus musculus, UniProt P32300); experiment: [35S]GTPγS binding assay in NG108-15 cell membranes (delta opioid functional assay); format: biochemical; details: for GTPγS δ-Rel Efficacy @200 nM: 200 nM compound, relative to calculated max of SNC80 dose response
T3 construct: NG108-15 cell membranes were purchased from Applied Cell Sciences (Rockville, Md.); host or cells: NG108-15 cell membranes (purchased)
T3 sequence (P32300 whole entry): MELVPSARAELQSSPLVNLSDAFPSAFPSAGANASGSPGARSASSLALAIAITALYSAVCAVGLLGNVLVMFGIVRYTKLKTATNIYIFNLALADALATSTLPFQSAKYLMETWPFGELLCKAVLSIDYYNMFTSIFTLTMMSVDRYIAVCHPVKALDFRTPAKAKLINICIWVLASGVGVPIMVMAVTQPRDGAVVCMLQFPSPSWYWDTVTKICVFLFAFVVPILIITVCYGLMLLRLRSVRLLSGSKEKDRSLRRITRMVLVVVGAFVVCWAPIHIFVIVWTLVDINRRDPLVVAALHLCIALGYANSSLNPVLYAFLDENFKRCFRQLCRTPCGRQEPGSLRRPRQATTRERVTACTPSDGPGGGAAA
Experimental: Methods: NG108-15 cell membranes were purchased from Applied Cell Sciences (Rockville, Md.). 5 mg/mL of membrane protein was suspended in 10 mM TRIS-HCl pH 7.2, 2 mM EDTA, 10% sucrose. Membranes were maintained at 4-8° C. A 1 mL volume of membranes was added into 10 mL cold binding assay buffer. The assay buffer contained 50 mM Tris, pH 7.6, 5 mM MgCl2, 100 mM NaCl, 1 mM DTT and 1 mM EGTA. The membrane suspension was homogenized twice with a Polytron, and centrifuged at 3000 rpm for 10 min. The supernatant was then centrifuged at 18,000 rpm for 20 min. Ten mL assay buffer was added into the pellet containing tube. The pellet and buffer were mixed with a Polytron.
Incubation procedure: The pellet membranes (75 μg/mL) were preincubated with SPA (10 mg/mL) at 25° C. for 45 min in the assay buffer. […] 200 nM of receptor agonists was used to stimulate [^35S]-GTPγS binding. The basal binding was tested in the absence of agonists and non-specific binding was tested in the presence of 10 μM unlabeled GTPγS.
Data % of Basal=(stimulated−non specific)*100/(basal−non specific). Relative Efficacy of a compound at 200 nM=(% of Basal of test compound at 200 nM)/(Calculated Max of SNC80 dose response. Curve in prism).

delta opioid receptor [3] = biological target: T3, delta opioid receptor; experiment: as above; format: biochemical; details: 10 μM
[4] = ~4 nM [3H]DPDPE, read-out: δ-binding (DPDPE ligand) Ki
[5] = 0.25 nM [3H]naltrindole, read-out: δ-binding (Naltrindole ligand) Ki

SMILES	Ki (delta opioid receptor [1]; [4]) [nM]	Ki (mu opioid receptor) [nM]	Ki (delta opioid receptor [1]; [5]) [nM]	further results
Fc1ccc(Oc2ncc(NCC3CCCN3)c(Oc3ccc(F)cc3)n2)cc1 (stereo not shown) [Cpd 24]	396	> 10000		
COc1ccc(Oc2ncc(NCc3ccncc3)c(Oc3ccc(OC)cc3)n2)cc1 [Cpd 39]		> 10000	3530	
COc1ccc(Oc2ncc(NCC3CCCNC3)c(Oc3ccc(OC)cc3)n2)cc1 (racemic) [Cpd 15]		3240	297	
COc1ccc(Oc2nc(Oc3cccc(OC)c3)ncc2NC[C@@H]2CCCN2)cc1 [Cpd 52]				GTPγS δ-opioid receptor Rel Efficacy (delta opioid receptor [2]): 0.935; GTPγS δ-Rel Efficacy @200 nM (delta opioid receptor [2]): 0.624; EC50 (delta opioid receptor [2]; GTPγS δ-opioid receptor EC50): 51 nM
COc1ccc(Oc2ncc(NC3CC4CCC(C3)N4)c(Oc3ccc(OC)cc3)n2)cc1 (stereo not shown) [Cpd 11]		2150	155	
COc1ccc(Oc2ncc(NCc3nccs3)c(Oc3ccc(OC)cc3)n2)cc1 [Cpd 43]	4220	> 10000		
COc1ccc(Oc2ncc(NC3CCNCC3)c(Oc3ccc(OC)cc3)n2)cc1 [Cpd 12]		15200	174	
COc1ccc(Oc2nc(Nc3cccc(F)c3)ncc2NC[C@@H]2CCCN2)cc1 [Cpd 49, N^2-(3-Fluoro-phenyl)-4-(4-methoxy-phenoxy)-N^5-pyrrolidin-2-(S)-ylmethyl-pyrimidine-2,5-diamine]				GTPγS δ-Rel Efficacy @200 nM (delta opioid receptor [2]): 0.216
COc1ccc(Oc2ncc(NCc3ncc[nH]3)c(Oc3ccc(OC)cc3)n2)cc1 [Cpd 42]	3810	> 10000		
COc1ccc(Oc2ncc(NC3CCCN(Cc4ccccc4)C3)c(Oc3ccc(OC)cc3)n2)cc1 (racemic) [Cpd 32]	876	> 10000		
COc1ccc(Oc2ncc(NC[C@@H](N)CO)c(Oc3ccc(OC)cc3)n2)cc1 [Cpd 10]		> 10000	130	
COc1ccc(Oc2ncc(NC(C)c3ccncc3)c(Oc3ccc(OC)cc3)n2)cc1 (racemic) [Cpd 40]		> 10000	4370	
COc1ccc(Oc2ncc(NC3CCN(Cc4ccccc4)C3)c(Oc3ccc(OC)cc3)n2)cc1 (racemic) [Cpd 27, (1-Benzyl-pyrrolidin-3-yl)-[2,4-bis-(4-methoxy-phenoxy)-pyrimidin-5-yl]-amine]		3570	1020	
COc1ccc(Oc2ncc(NC3CCN(C(C)=O)CC3)c(Oc3ccc(OC)cc3)n2)cc1 [Cpd 41]		> 10000	5320	
COc1ccc(C=Cc2ncc(NC[C@@H]3CCCN3)c(Oc3ccc(OC)cc3)n2)cc1 [Cpd 19, {4-(4-Methoxyphenoxy)-2-[2-(4-methoxyphenyl)vinyl]-pyrimidin-5-yl}-pyrrolidin-2-(S)-ylmethylamine]	232	2050		
COc1ccc(Oc2ncc(NC3CCNC3)c(Oc3ccc(OC)cc3)n2)cc1 (racemic) [Cpd 36]		> 10000	2140	
COc1ccc(Oc2nc(Oc3cccc(Cl)c3)ncc2NC[C@@H]2CCCN2)cc1 [Cpd 51]				GTPγS δ-opioid receptor Rel Efficacy (delta opioid receptor [2]): 1.040; GTPγS δ-Rel Efficacy @200 nM (delta opioid receptor [2]): 0.859; EC50 (delta opioid receptor [2]; GTPγS δ-opioid receptor EC50): 43 nM
COc1ccc(Oc2ncc(NCC3CCCN3)c(Oc3ccc(OC)cc3)n2)cc1 (racemic) [Cpd 6]		1840	43.7	GTPγS δ-opioid receptor % Inh @10 μM (delta opioid receptor [3]): 12.502%
COc1ccc(Oc2nc(Nc3nccs3)ncc2NC[C@@H]2CCCN2)cc1 [Cpd 50]				GTPγS δ-Rel Efficacy @200 nM (delta opioid receptor [2]): 0.143

SMILES	Ki (delta opioid receptor [1]; [4]) [nM]	Ki (mu opioid receptor) [nM]	Ki (delta opioid receptor [1]; [5]) [nM]	further results
COc1ccc(Oc2ncc(NC[C@@H]3CCCN3C)c(Oc3ccc(OC)cc3)n2)cc1 [Cpd 9, [2,4-Bis-(4-methoxy-phenoxy)-pyrimidin-5-yl]-(1-methyl-pyrrolidin-2-(S)-ylmethyl)-amine]		9290	115	
COc1ccc(Oc2nc([S+]([O-])c3ccc(OC)cc3)ncc2NC[C@@H]2CCCN2)cc1 (stereo partly drawn) [Cpd 20, [2-(4-Methoxybenzenesulfinyl)-4-(4-methoxyphenoxy)-pyrimidin-5-yl]-pyrrolidin-2-(S)-ylmethylamine]	274	> 10000		
COc1ccc(Oc2ncc(NCCC3CCCNC3)c(Oc3ccc(OC)cc3)n2)cc1 (racemic) [Cpd 34]	1120	> 10000		
COc1ccc(Oc2ncc(NCC3CCNC3)c(Oc3ccc(OC)cc3)n2)cc1 (racemic) [Cpd 22]	357	9280		
COc1ccc(Nc2ncc(NC[C@@H]3CCCN3)c(Oc3ccc(OC)cc3)n2)cc1 [Cpd 23, 4-(4-Methoxyphenoxy)-N^2-(4-methoxyphenyl)-N^6-pyrrolidin-2-(S)-ylmethyl-pyrimidine-2,5-diamine]	363	> 10000		
COc1ccc(Oc2ncc(NCC3CNCCO3)c(Oc3ccc(OC)cc3)n2)cc1 (racemic) [Cpd 31]	723	> 10000		
COc1ccc(Oc2ncc(NCC3CNC3)c(Oc3ccc(OC)cc3)n2)cc1 [Cpd 13]		> 10000	238	
COc1ccc(Oc2nc(Oc3cc(F)cc(F)c3)ncc2NC[C@@H]2CCCN2)cc1 [Cpd 54]				GTPγS δ-Rel Efficacy @200 nM (delta opioid receptor [2]): 0.066
CCN(CC)CCC(C)Nc1cnc(Oc2ccc(OC)cc2)nc1Oc1ccc(OC)cc1 (racemic) [Cpd 38]		> 10000	3090	
COc1ccc(Oc2ncc(NC3CNCCC3c3ccccc3)c(Oc3ccc(OC)cc3)n2)cc1 (stereo not shown) [Cpd 35]	1430	> 10000		
COc1ccc(Oc2ncc(NCC3CCNCC3)c(Oc3ccc(OC)cc3)n2)cc1 [Cpd 17]		12300	477	
COc1ccc(Oc2ncc(CNC[C@@H]3CCCN3C)c(Oc3ccc(OC)cc3)n2)cc1 [Cpd 8]		7160	92.5	
COc1ccc(Oc2nc(Nc3cccnc3)ncc2NC[C@@H]2CCCN2)cc1 [Cpd 48]				GTPγS δ-Rel Efficacy @200 nM (delta opioid receptor [2]): 0.267
COc1ccc(Oc2ncc(NCc3ccc(-n4ccnc4)cc3)c(Oc3ccc(OC)cc3)n2)cc1 [Cpd 37, [2,4-Bis-(4-methoxy-phenoxy)-pyrimidin-5-yl]-(4-imidazol-1-yl-benzyl)-amine]		> 10000	2700	
COc1ccc(Oc2ncc(NCCC3CCNCC3)c(Oc3ccc(OC)cc3)n2)cc1 [Cpd 33]	1110	> 10000		
COc1ccc(Oc2nc(Oc3cccc(C#N)c3)ncc2NC[C@@H]2CCCN2)cc1 [Cpd 53]				GTPγS δ-opioid receptor Rel Efficacy (delta opioid receptor [2]): 1.033; GTPγS δ-Rel Efficacy @200 nM (delta opioid receptor [2]): 0.705; EC50 (delta opioid receptor [2]; read-out: GTPγS δ-opioid receptor EC50): 53 nM
COc1ccc(Oc2ncc(NC[C@H](N)CO)c(Oc3ccc(OC)cc3)n2)cc1 [Cpd 21, 2-(S)-Amino-3-[2,4-bis-(4-methoxy-phenoxy)-pyrimidin-5-ylamino]propan-1-ol]	348	> 10000		
COc1ccc(Oc2ncc(NC3CCC(N)CC3)c(Oc3ccc(OC)cc3)n2)cc1 (stereo not shown) [Cpd 16]		3860	455	
COc1ccc(Oc2ncc(NCC3CCCCN3)c(Oc3ccc(OC)cc3)n2)cc1 (racemic) [Cpd 25]	489	2510		
